Here are results for 17 compounds from patent US20250353835A1, “N-TETRAZOLYL ARYL UREA-BASED DERIVATIVES, PREPARATION METHOD THEREFOR, AND USE THEREOF” (Hangzhou Yirui Pharmaceutical Technology Co., Ltd, priority 2022, published 2025).

SMILES strings stand for the structures.

Experiment [1] addresses T1, human B1R (Homo sapiens, UniProt P46663).
T1 construct: host or cells: HEK293
T1 sequence (P46663 1-353): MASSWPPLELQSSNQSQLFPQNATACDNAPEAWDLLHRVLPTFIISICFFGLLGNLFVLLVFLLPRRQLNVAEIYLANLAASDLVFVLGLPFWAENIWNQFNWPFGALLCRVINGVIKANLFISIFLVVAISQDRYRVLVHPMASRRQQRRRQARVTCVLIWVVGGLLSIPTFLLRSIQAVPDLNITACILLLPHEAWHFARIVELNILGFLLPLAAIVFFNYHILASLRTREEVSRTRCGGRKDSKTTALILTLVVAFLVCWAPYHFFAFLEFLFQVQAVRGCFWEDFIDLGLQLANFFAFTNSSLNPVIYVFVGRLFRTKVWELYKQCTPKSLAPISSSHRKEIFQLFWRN
As to the kind of experiment: FLIPR calcium ion flux assay, inhibitory activity against human B1R. As to conditions: HEK293 cells stably expressing human B1R; agonist [Lys-des-Arg9]-Bradykinin 4.6 nM (EC80); FLIPR method. The class given is cell-based. The protocol: The inhibitory activity of the compounds against human B1R and B2R channels was determined by calcium ion flux assay using fluorometric imaging plate reader (FLIPR method). See literatures of Lee, Chen et al. for the method. [Lee et al. 2008][Chen et al. 2011]
1. Cell culture: HEK293 recombinant cell lines (WuXi AppTec, Shanghai, China) stably expressing human B1R and B2R were cultured in DMEM (Invitrogen, Cat #11965) medium containing 10% calf serum (Excellbio, Cat #FSP500), 5 μg/ml Geneticin (Invitrogen, Cat #10131) and Penicillin/Streptomycin (Invitrogen, Cat #15140). The incubator conditions were 37° C. and ambient humidity containing 5% CO2.
2. Preparation of the cell assay plate: B1R and B2R cells were seeded in a 384-well assay plate (Greiner, Cat #781090) at a density of 20,000 cells per well (20 μl/well), and cultured overnight at 37° C. in an incubator with 5% CO2. The next day, Fluo-4 Direct™ Loading Buffer (containing 5 mM Probenicid) containing 2× (8 μM) Fluo-4 Direct (Invitrogen, Cat #F10471) was added to each of the wells. The cells were cultured at 37° C. for 50 min, and then culture for at the room temperature 10 min.
3. Preparation of the compound assay plate: The compound was dissolved in 100% DMSO to make a 30 mM stock solution and stored at −20° C. On the day of use, the stock solution of the compound was thawed at the room temperature. Each of the compounds was serially diluted at 1:5 in DMSO culture medium with a starting concentration of 30 μM for 9 concentration points on a 384-well plate. Each of compounds was diluted in duplicate for testing. [Des-Arg10]-HOE140 was used as a positive control compound, and diluted in the same manner with a starting concentration of 3 μM.
4. FLIPR assay: The cell assay plate was placed in a FLIPR instrument ([…]). The compounds in the compound assay plate were added to the corresponding wells on the cell assay plate (10 μL/well) using an automatic program. The calcium ion fluorescence signal was recorded to determine whether the compound may have agonist activity. After 10 minutes, a B1R agonist [Lys-des-Arg9]-Bradykinin2 (10 μL/well) with a final concentration of 4.6 nM (EC80) was added to each of the wells to stimulate the generation of intracellular calcium ion flux signals. The Ca^++-dependent fluorescence signal was continuously monitored at a wavelength of 538 nm to analyze the inhibitory activity of the compound.
5. Data analysis: The data was collected and analyzed by a FLIPR program. The inhibitory (or agonist) activity of the compound at each concentration was evaluated by the fluorescence peak. The IC50 values of the compounds were calculated using EXCEL and PRISM programs.

The subject of experiment [2] is rat model of diabetic retinopathy. As to the kind of experiment: Rat model of diabetic retinopathy (STZ). It is filed as in vivo, Wistar rats. As to conditions: for retinal leukocyte stasis, Leukocyte count: Concanavalin A/FITC, 14 days after intravitreal injection, compounds 0.25%, dexamethasone 0.1%; for number of leukocyte stasis in the retina (fluorescent staining, FIG. 8; in words) / retinal vascular penetration in rats (fluorescent staining, FIG. 6; in words): intraocular injection, versus model group. The protocol: 3.1 Laboratory animals: SPF-grade male Wistar rats, weighed 180-220 g.
3.3 Animal modeling and grouping: After one week of adaptive feeding, 134 male Wistar rats (weighed 220-260 g) were administered 65 mg/kg of STZ by one-time intraperitoneal injection to prepare a rat model of type I diabetic. The rats were fasting but water was allowable overnight for 15 h. The formulated STZ solution was intraperitoneally injected according to body weight. After 1 h, the diet was resumed and blood glucose was measured at 72 h. The successfully modeled diabetic rats (120 rats) were selected for continued feeding, and randomly divided into the following 6 groups according to blood glucose (20 rats per group), plus a group of normal rats with no STZ injected as a negative control group.
3.4 Administration: The rats continued to be fed until blood glucose was measured once before administration. After blood glucose reached the standard, drugs were intravitreally injected, and indexs were subsequently tested after 14 days. Blood glucose was measured once before sampling.
3.5 Evans blue staining method (7 groups, 6 rats per group): Evans blue was intravenously injected. 2 hours later, normal saline was perfused into the left ventricle. The retina was taken to compare between the stained area and the unstained area to detect retinal vascular permeability.
3.6 Retinal leukocyte stasis detection method (7 groups, 6 rats per group): PBS was perfused into the left ventricle for 1 min to remove red blood cells and other substances. Concanavalin A (FITC (Sigma, C7642) was perfused (20 μg/ml in PBS, 5 mg/kg) to mark adherent leukocytes. 4% PFA was perfused for 4 min for fixation. 1% Albumin (Sigma, A6414) (in PBS) was perfused for 1 min, and then PBS was perfused for 2 min. The retina was taken for retinal wholemount. Thereafter, the stasis of leukocytes on the vascular endothelium was observed under a fluorescence microscope. […]

`COc1ccc(-c2c(F)cc(NC(=O)N3CCC(C(C)(C)C)CC3)cc2-c2nn[nH]n2)cc1OC` [Compound 11, 4-(tert-butyl)-N-(2-fluoro-3′,4′-dimethoxy-6-(2H-tetrazol-5-yl)-[1,1′-biphenyl]-4-yl)piperidine-1-carboxamide]: the IC50 (as a rule, the concentration at which inhibition is half-maximal) in experiment [1] was found to be 0.0146 µM. Besides, in experiment [2], the “retinal leukocyte stasis, Leukocyte count” value is 7.20 ± 8.44; the “number of leukocyte stasis in the retina (fluorescent staining, FIG. 8; in words)” value is given as “significantly reduced”; the “retinal vascular penetration in rats (fluorescent staining, FIG. 6; in words)” value is recorded as “significantly reduced”.

On to `CC(C)(C)c1cn(-c2c(F)cc(NC(=O)N3CCC(C(C)(C)C)CC3)cc2-c2nn[nH]n2)cn1` [Compound 57, 4-(tert-butyl)-N-(4-(4-(tert-butyl)-1H-imidazol-1-yl)-3-fluoro-5-(2H-tetrazol-5-yl)phenyl)piperidine-1-carboxamide], for which the IC50 in experiment [1] stood at 0.0081 µM.

For `CC(C)(C)c1cn(-c2ccc(NC(=O)N3CCC(C(C)(C)C)CC3)cc2-c2nn[nH]n2)cn1` [Compound 58, 4-(tert-butyl)-N-(4-(4-(tert-butyl)-1H-imidazol-1-yl)-3-(2H-tetrazol-5-yl)phenyl)piperidine-1-carboxamide], the IC50 in experiment [1] turned out to be 0.0086 µM.

Consider `COc1ccc(-c2ccc(NC(=O)NC3CCC(C(C)(C)C)CC3)cc2-c2nn[nH]n2)cc1OC` (centres unmarked) [Compound 59, 1-(4-(tert-butyl)cyclohexyl)-3-(3′,4′-dimethoxy-2-(2H-tetrazol-5-yl)-[1,1′-biphenyl]-4-yl)urea], for which the IC50 in experiment [1] was 0.0354 µM.

In the case of `COc1ccc(-c2ccc(NC(=O)Nc3ccc(C(F)(F)F)cc3)cc2-c2nn[nH]n2)cc1OC` [Compound 60, 1-(3′,4′-dimethoxy-2-(2H-tetrazol-5-yl)-[1,1′-biphenyl]-4-yl)-3-(4-(trifluoromethyl)phenyl)urea], in experiment [1], the IC50 is 0.247 µM.

Consider `COc1ccc(-c2ccc(NC(=O)N[C@H]3CC[C@@H](C)CC3)cc2-c2nn[nH]n2)cc1OC` [Compound 61, 1-(3′,4′-dimethoxy-2-(2H-tetrazol-5-yl)-[1,1′-biphenyl]-4-yl)-3-(4-methylcyclohexyl)urea], for which the IC50 in experiment [1] was determined as 0.0922 µM.

Turning to `COc1ccc(-c2ccc(NC(=O)N[C@H]3CC[C@H](C)CC3)cc2-c2nn[nH]n2)cc1OC` [Compound 62, 1-(3′,4′-dimethoxy-2-(2H-tetrazol-5-yl)-[1,1′-biphenyl]-4-yl)-3-((trans)-4-methylcyclohexyl)urea], in experiment [1], the IC50 came to 0.0602 µM.

`COc1ccc(Oc2ccc(NC(=O)N[C@H]3CC[C@@H](C)CC3)cc2-c2nn[nH]n2)cc1OC` [Compound 63, 1-(4-(3,4-dimethoxyphenoxy)-3-(2H-tetrazol-5-yl)phenyl)-3-((cis)-4-methylcyclohexyl)urea]: the IC50 in experiment [1] came out at 7.71 µM.

With `COc1ccc(Oc2ccc(NC(=O)N[C@H]3CC[C@H](C)CC3)cc2-c2nn[nH]n2)cc1OC` [Compound 64, 1-(4-(3,4-dimethoxyphenoxy)-3-(2H-tetrazol-5-yl)phenyl)-3-((trans)-4-methylcyclohexyl)urea], the IC50 in experiment [1] was found to be 9.9 µM.

Take `COc1ccc(-c2ccc(NC(=O)N(C)[C@H]3CC[C@H](C(C)(C)C)CC3)cc2-c2nn[nH]n2)cc1OC` [Compound 65, 1-((trans)-4-(tert-butyl)cyclohexyl)-3-(3′,4′-dimethoxy-2-(2H-tetrazol-5-yl)-[1,1′-biphenyl]-4-yl)-1-methylurea]: the IC50 in experiment [1] worked out at 0.0435 µM. For the same compound, in experiment [2], the “retinal leukocyte stasis, Leukocyte count” value is given as 5.14 ± 1.20; the “number of leukocyte stasis in the retina (fluorescent staining, FIG. 8; in words)” value was “significantly reduced”; the “retinal vascular penetration in rats (fluorescent staining, FIG. 6; in words)” value was “significantly reduced”.

Regarding `C[C@H]1CC[C@H](NC(=O)Nc2ccc(C3=CCOCC3)c(-c3nn[nH]n3)c2)CC1` [Compound 66, 1-(4-(3,6-dihydro-2H-pyran-4-yl)-3-(2H-tetrazol-5-yl)phenyl)-3-((trans)-4-methylcyclohexyl)urea], the IC50 in experiment [1] is 1.65 µM.

For the compound `C[C@H]1CC[C@@H](NC(=O)Nc2ccc(C3CCOCC3)c(-c3nn[nH]n3)c2)CC1` [Compound 67, 1-((cis)-4-methylcyclohexyl)-3-(4-(tetrahydro-2H-pyran-4-yl)-3-(2H-tetrazol-5-yl)phenyl)urea], the IC50 in experiment [1] was 13.3 µM.

Regarding `C[C@H]1CC[C@H](NC(=O)Nc2ccc(C3CCOCC3)c(-c3nn[nH]n3)c2)CC1` [Compound 68, 1-((trans)-4-methylcyclohexyl)-3-(4-(tetrahydro-2H-pyran-4-yl)-3-(2H-tetrazol-5-yl)phenyl)urea], the IC50 in experiment [1] worked out at 7.49 µM.

As to `C[C@H]1CC[C@H](NC(=O)Nc2ccc(-c3ccc4c(c3)OCO4)c(-c3nn[nH]n3)c2)CC1` [Compound 69, 1-(4-(benzo[d][1,3]dioxolan-5-yl)-3-(2H-tetrazol-5-yl)phenyl)-3-((trans)-4-methylcyclohexyl)urea], the IC50 in experiment [1] came out at 4.91 µM.

In the case of `CC(C)(C)[C@H]1CC[C@@H](NC(=O)Nc2ccc(-c3ccc4c(c3)OCO4)c(-c3nn[nH]n3)c2)CC1` [Compound 70, 1-(4-(benzo[d][1,3]dioxolan-5-yl)-3-(2H-tetrazol-5-yl)phenyl)-3-((cis)-4-(tert-butyl)cyclohexyl)urea], in experiment [1], the IC50 came to 0.303 µM.

As for `C[C@H]1CC[C@@H](NC(=O)Nc2ccc(OC3CCOCC3)c(-c3nn[nH]n3)c2)CC1` [Compound 72], in experiment [1], the IC50 was determined as 12 µM.

As for `C[C@H]1CC[C@H](NC(=O)Nc2ccc(OC3CCOCC3)c(-c3nn[nH]n3)c2)CC1` [Compound 73], the IC50 in experiment [1] was 13.7 µM.
